Read-outs that look alike come from different tables or passages of the source.
Assays:
[1] = test system: L. infantum intramacrophagic amastigotes; test: L. donovani infantum/RAW 264.7 macrophage model (intramacrophagic amastigotes, SYBR Green I); assay type: cell-based, Leishmania donovani infantum
Description: Protocol for Evaluation on the L. donovani infantum/RAW 264.7 Macrophage Model (Intramacrophagic Amastigotes)
Mouse macrophage cells RAW 264.7 (ATCC) were seeded into a 96-well microplate and maintained in DMEM medium (Applied Biosystems, France) supplemented with 10% heat-inactivated fetal bovine serum in a 5% CO2 incubator at 37° C. for 24 h. Then, the medium was replaced with 100 μL fresh medium containing a suspension of 10^5 L. infantum amastigotes and the incubation time was 16 h. Then, extracellular parasites were eliminated from the medium and 100 μL fresh medium containing compound in various concentrations were added for a 48 h-incubation. Parasite growth was determined by using SYBR® Green I (Life technology, Fisher Scientific, France), a dye with marked fluorescence enhancement upon contact with DNA. The cell lysis suspension was diluted 1:1 in lysis buffer (10 mM NaCl, 1 mM Tris HCl pH8, 2.5 mM EDTA pH 8, 0.05% SDS, 0.01 mg/mL proteinase K and 10×SYBR Green I). Incorporation of SYBR Green I in DNA amplification was measured using the Master epRealplex cycler® (Eppendorf, France) according to the following program to increase the SYBR green incorporation: 90° C. for 1 min, decrease in temperature from 90° C. to 10° C. for 5 min with reading the fluorescence at 10° C. for 1 min and a new reading at 10° C. for 2 min. The EC50 as the concentration inhibiting the parasite growth by 50% was calculated by nonlinear regression using icestimator website 1.2 version: http://www.antimalarial-icestimator.net/MethodIntro.htm.

[2] = Cytotoxicity on RAW 264.7 macrophages; assay type: cell-based, Mouse; conditions: mouse, RAW 264.7 macrophages; Table I
[3] = test system: L. infantum intramacrophagic amastigotes; test: L. donovani infantum/RAW 264.7 macrophage model (intramacrophagic amastigotes, SYBR Green I); assay type: cell-based, Leishmania donovani infantum; conditions: Table I; ratio
[4] = test system: Leishmania infantum axenic amastigotes; test: Evaluation on Leishmania donovani infantum axenic amastigotes (SYBR Green I); assay type: cell-based
Description: Protocol for Evaluation on Leishmania donovani infantum Axenic Amastigotes
Amastigote forms of the parasite were suspended to yield 10^7 parasitic cells mL^−1. The maximum final compound concentration used was 100 μM. Triplicates were used for each concentration. Cultures were incubated at 37° C. for 72 h in the dark and under a 5% CO2 atmosphere, then the viability of the amastigotes was assessed using the SYBR® Green I (Invitrogen, France) incorporation method. Parasite growth was determined by using SYBR® Green I, a dye with marked fluorescence enhancement upon contact with parasite DNA. Parasites were lysed and quantified by Direct PCR-Cell Genotyping without DNA isolation protocol (Euromedex, France). 10 μL of lysed parasite solution from each well was added to 40 μL of PCR-Cell reagent containing the SYBR® green I in a qPCR plate of 96 wells, and the contents were mixed. Fluorescence was measured with Mastercycler® ep realplex (Eppendorf, France). Measured fluorescence was compared to that from the range obtained with different parasite densities. The antileishmanial activity was expressed as IC50 in μM (concentration of drug inhibiting 50% of the parasite growth, comparatively to the controls treated with the excipient only).

RAW 264.7 macrophages = test: Cytotoxicity on RAW 264.7 macrophages; assay type: cell-based, Mouse; conditions: Table I
[5] = test system: L. donovani (MHOM/ET/67/HU3) amastigotes; test: In vivo antileishmanial evaluation, Leishmania donovani/Balb/c mouse model (liver parasite load); conditions: for % reduction of parasite burden in the liver / LDU ± SD (parasites in the liver): Balb/c mice
Description: Compounds VP343, VP370 were evaluated in vivo for their antileishmanial properties by oral and intravenous route on the Leishmania donovani/Balb/c mouse model, comparatively to miltefosine, used as reference drug, according to a previously described protocol (Balaraman et al., 2015). Six- to eight-week-old Balb/c mice (Élevages Janvier, Le Genest Saint Isle, France) were infected intravenously on day 1 with 10^7 L. donovani (MHOM/ET/67/HU3) amastigotes derived from the spleen of hamsters and randomly sorted into four groups of 10 mice and one group of 12 mice as infected controls but not treated. The treatment administered orally or intravenously, started one week post-infection, on day 8, and continued for 5 consecutive days. At day 15, all groups of mice were autopsied and livers and spleens were weighed. Parasite load in the liver was determined by counting the number of amastigotes/500 liver cells in Giemsa-stained impression smears prepared from the liver and applying Stauber's formula. Three researchers counted the slides independently and the results are expressed as the mean values±SD. The parasite burden of treated groups and controls were compared using Student's t-test or the Kruskal-Wallis nonparametric analysis of variance test for comparing two groups. Significance was established for a P value<0.05.

[6] = In vivo toxicity evaluation by oral route in mice (serum biochemical parameters); parameters: species or system Balb/C female mice; Serum urea: unit not given here
Description: Biochemical parameters relative to VP343 and VP370 toxicity in Balb/C female mice (18-20 g) after a single treatment by oral route at 100 mg/kg under a 0.1 mL volume (=5 mL/kg). Serum were collected one week after the treatment. Excipient: Methylcellulose 1%+Tween 0.1%.
Dosages were performed with a Cobas 800 (Roche/Hitachi) apparatus.

[7] = Leishmania infantum, Macrophage, Table II, 3 different experiments, SYBR Green I method, read-out: IC50 intramacrophagic
[8] = Leishmania infantum, RAW264.7, Table I, RAW 264.7 macrophages, 48 h incubation, read-out: Intramacrophagic amastigotes IC50
[9] = Leishmania infantum, Table I, 72 h incubation, read-out: Axenic amastigotes IC50
[10] = Leishmania infantum, Table II, 3 different experiments, SYBR Green I method, read-out: IC50 axenic
[11] = intravenous route, 10 mg/kg/day × 5
[12] = single oral treatment 100 mg/kg, serum one week after treatment

Row | Compound | IC50 [1, 7] | IC50 [4, 10] | also measured
1 | COc1ccc(Br)cc1CNC12CC3CC(CC(C3)C1)C2 [ABMA] | 7100 nM | > 100000 nM | IC50 [1, 8]: 7100 ± 1700 nM; CC50 [2]: 25300 ± 2400 nM; Selectivity IC50 (Axenic amastigotes)/IC50 (Intramacrophagic amastigotes) [3]: >14; IC50 [4, 9]: > 100000 nM
2 | C[C@@H]1[C@H](O)[C@@H](C)/C=C/C=C/C=C/C=C/C=C/C=C/C=C/[C@H](O[C@@H]2O[C@H](C)[C@@H](O)[C@H](N)[C@@H]2O)C[C@@H]2O[C@](O)(C[C@@H](O)C[C@@H](O)[C@H](O)CC[C@@H](O)C[C@@H](O)CC(=O)O[C@H]1C)C[C@H](O)[C@H]2C(=O)O [Amphotericin B, reference compound] | – | – | IC50 ([1]; Table I, RAW 264.7 macrophages, 48 h incubation, read-out: Intramacrophagic amastigotes IC50): 47 ± 5 nM; CC50 (RAW 264.7 macrophages): 4500 ± 400 nM; Selectivity IC50 (Axenic amastigotes)/IC50 (Intramacrophagic amastigotes) [3]: <1; IC50 ([4]; Table I, 72 h incubation, read-out: Axenic amastigotes IC50): 31 ± 2 nM
3 | CCCCCCCCCCCCCCCCOP(=O)([O-])OCC[N+](C)(C)C [Miltefosine, reference compound] | – | – | IC50 [1, 8]: 850 ± 200 nM; CC50 [2]: 12500 ± 1300 nM; Selectivity IC50 (Axenic amastigotes)/IC50 (Intramacrophagic amastigotes) [3]: 1.4; % reduction of parasite burden in the liver [5, 11]: 65.9%; LDU ± SD (parasites in the liver) [5, 11]: 0.36 ± 0.08 ×10^8; % reduction of parasite burden in the liver ([5]; oral route, 10 mg/kg/day × 5): 84.6%; LDU ± SD (parasites in the liver) ([5]; oral route, 10 mg/kg/day × 5, autopsy day 15): 0.19 ± 0.09 ×10^9; IC50 [4, 9]: 1200 ± 500 nM
4 | COc1ccc(Br)cc1/C=N/C12CC3CC(CC(C3)C1)C2 [VP300A] | 210 nM | 4530 nM | –
5 | COc1ccc(Br)cc1CN[C@@H]1C[C@H]2CC[C@]1(C)C2(C)C [VP305] | 60 nM | < 500 nM | –
6 | COc1ccc(Br)cc1CN[C@@H]1C[C@@H]2C[C@H]([C@H]1C)C2(C)C [VP330] | 250 nM | 4860 nM | –
7 | C[C@@H]1[C@@H](NCc2ccoc2)C[C@H]2C[C@@H]1C2(C)C [VP354] | 420 nM | 4100 nM | –
8 | C[C@@H]1[C@@H](NCc2ncc[nH]2)C[C@H]2C[C@@H]1C2(C)C [VP358] | 570 nM | 13000 nM | –
9 | C[C@@H]1[C@@H](NCc2c[nH]c3ccccc23)C[C@H]2C[C@@H]1C2(C)C [VP359] | 250 nM | > 100000 nM | –
10 | C[C@@H]1[C@@H](NCc2cccc(Br)c2)C[C@H]2C[C@@H]1C2(C)C [VP361] | 390 nM | 3700 nM | –
11 | COc1ccccc1CN[C@H]1C[C@H]2C[C@@H]([C@@H]1C)C2(C)C [VP363] | 190 nM | 9990 nM | –
12 | COc1ccc(OC)c(CN[C@H]2C[C@H]3C[C@@H]([C@@H]2C)C3(C)C)c1 [VP369] | 110 nM | 15400 nM | –
13 | COc1cccc(OC)c1CN[C@H]1C[C@H]2C[C@@H]([C@@H]1C)C2(C)C [VP370] | 40 nM | 36300 nM | % reduction of parasite burden in the liver ([5]; oral route, 20 mg/kg/day × 5): 62.7%; LDU ± SD (parasites in the liver) ([5]; oral route, 20 mg/kg/day × 5, autopsy day 15): 0.46 ± 0.12 ×10^9; Activity in vivo by oral route (in words) ([5]; VP343 and VP370 at 20 mg/kg/day×5, VP343 also at 10 mg/kg/day×5, Tukey's multiple comparisons test): significantly active; Serum AST ± SD [6, 12]: 330 ± 68 U/L; Serum AST ± SD (second AST column) [6, 12]: 197 ± 41 U/L; Serum creatinin [6, 12]: <18 µM; Serum urea [6, 12]: 7.9 ± 1.5; Toxicity after single oral treatment (in words) ([6]; single treatment by oral route at 100 mg/kg): did not show toxicity
14 | C[C@@H]1[C@@H](NCc2cccc(Cl)c2)C[C@H]2C[C@@H]1C2(C)C [VP371] | 190 nM | 30500 nM | –
15 | C[C@@H]1[C@@H](NCc2cc(F)ccc2F)C[C@H]2C[C@@H]1C2(C)C [VP381] | 170 nM | 58800 nM | –
16 | C[C@@H]1[C@@H](NCc2ccc(I)cc2)C[C@H]2C[C@@H]1C2(C)C [VP390] | 270 nM | 21600 nM | –
17 | Cc1ccccc1CN[C@H]1C[C@H]2C[C@@H]([C@@H]1C)C2(C)C [VP391] | 210 nM | 7550 nM | –
18 | C[C@@H]1[C@@H](NCc2ccc(-n3ccnc3)cc2)C[C@H]2C[C@@H]1C2(C)C [VP393] | 290 nM | 8900 nM | –
19 | Cc1ccc(-c2ccc(CN[C@H]3C[C@H]4C[C@@H]([C@@H]3C)C4(C)C)cc2)cc1 [VP396] | 210 nM | 5560 nM | –
20 | C[C@@H]1[C@@H](NCc2ccc3c(c2)Cc2ccccc2-3)C[C@H]2C[C@@H]1C2(C)C [VP397] | 500 nM | 9720 nM | –
